Data as given in PubChem BioAssay (NCI).
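Tested at 5 concentrations; 48 h exposure; 96-well plates; endpoints linearly interpolated, else capped at highest concentration. TGI marks complete inhibition of growth.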

Assays:
Experiment in all cases: NCI anticancer screen, dose series, 48 h
[1] = system: CAKI-1 renal
[2] = system: OVCAR-4 ovarian
[3] = system: MDA-N
[4] = system: K-562 leukemia
[5] = system: NCI-H522 lung
[6] = system: OVCAR-3 ovarian
[7] = system: COLO 205 colon
[8] = system: LOX IMVI melanoma
[9] = system: SNB-75 CNS
[10] = system: IGROV1 ovarian
[11] = system: EKVX NSCLC
[12] = system: HCT-15 colon
[13] = system: MCF7 breast
[14] = system: SF-268 CNS
[15] = system: CCRF-CEM leukemia
[16] = system: SW-620 colon
[17] = system: HT29 colon
[18] = system: HS 578T breast
[19] = system: SK-MEL-28 melanoma
[20] = system: NCI-H460 lung
[21] = system: 786-0 renal
[22] = system: MDA-MB-231 breast
[23] = system: MALME-3M melanoma
[24] = system: OVCAR-5 ovarian
[25] = system: SK-MEL-5 melanoma
[26] = system: MOLT-4 leukemia
[27] = system: SNB-19 CNS
[28] = system: M14 melanoma
[29] = system: SF-295 CNS
[30] = system: DU-145 prostate
[31] = system: KM12 colon
[32] = system: A549 NSCLC
[33] = system: T-47D breast
[34] = system: NCI-H23 lung
[35] = system: SF-539 CNS
[36] = system: UACC-257 melanoma
[37] = system: MDA-MB-435
[38] = system: UO-31 renal
[39] = system: TK-10 renal
[40] = system: HCT-116 colon
[41] = system: HOP-62 NSCLC
[42] = system: SK-MEL-2 melanoma
[43] = system: NCI-H226 lung
[44] = system: HCC-2998 colon
[45] = system: NCI/ADR-RES ovarian
[46] = system: PC-3 prostate
[47] = system: U251 CNS
[48] = system: SR leukemia
[49] = system: OVCAR-8 ovarian
[50] = system: HL-60(TB) leukemia
[51] = system: HOP-92 NSCLC
[52] = system: SN12C renal
[53] = system: RPMI-8226 leukemia
[54] = system: ACHN renal
[55] = system: RXF 393 renal
[56] = system: BT-549 breast
[57] = system: A498 renal
[58] = system: UACC-62 melanoma
[59] = system: SK-OV-3 ovarian

Compound: CCn1cc(C(=O)O)c(=O)c2ccc(C)nc21
- TGI [1]: > 100 µM
- TGI [2]: > 100 µM
- TGI [3]: > 100 µM
- TGI [4]: > 100 µM
- TGI [5]: > 100 µM
- TGI [6]: > 100 µM
- TGI [7]: > 100 µM
- TGI [8]: > 100 µM
- TGI [9]: > 100 µM
- TGI [10]: > 100 µM
- TGI [11]: > 100 µM
- TGI [12]: > 100 µM
- TGI [13]: > 100 µM
- TGI [14]: > 100 µM
- TGI [15]: > 100 µM
- TGI [16]: > 100 µM
- TGI [17]: > 100 µM
- TGI [18]: > 100 µM
- TGI [19]: > 100 µM
- TGI [20]: > 100 µM
- TGI [21]: > 100 µM
- TGI [22]: > 100 µM
- TGI [23]: > 100 µM
- TGI [24]: > 100 µM
- TGI [25]: > 100 µM
- TGI [26]: > 100 µM
- TGI [27]: > 100 µM
- TGI [28]: > 100 µM
- TGI [29]: > 100 µM
- TGI [30]: > 100 µM
- TGI [31]: > 100 µM
- TGI [32]: > 100 µM
- TGI [33]: > 100 µM
- TGI [34]: > 100 µM
- TGI [35]: > 100 µM
- TGI [36]: > 100 µM
- TGI [37]: > 100 µM
- TGI [38]: > 100 µM
- TGI [39]: > 100 µM
- TGI [40]: > 100 µM
- TGI [41]: > 100 µM
- TGI [42]: > 100 µM
- TGI [43]: > 100 µM
- TGI [44]: > 100 µM
- TGI [45]: > 100 µM
- TGI [46]: > 100 µM
- TGI [47]: > 100 µM
- TGI [48]: > 100 µM
- TGI [49]: > 100 µM
- TGI [50]: > 100 µM
- TGI [51]: > 100 µM
- TGI [52]: > 100 µM
- TGI [53]: > 100 µM
- TGI [54]: > 100 µM

Compound: O=c1c(Nc2ccccc2)cn(CCOc2ccccc2)c(=O)n1CCOc1ccccc1
- TGI [1]: > 100 µM
- TGI [2]: 54.4 µM
- TGI [3]: > 100 µM
- TGI [4]: > 100 µM
- TGI [5]: 99.5 µM
- TGI [6]: > 100 µM
- TGI [7]: > 100 µM
- TGI [8]: > 100 µM
- TGI [55]: > 100 µM
- TGI [10]: > 100 µM
- TGI [11]: > 100 µM
- TGI [12]: > 100 µM
- TGI [13]: > 100 µM
- TGI [14]: 67.6 µM
- TGI [15]: > 100 µM
- TGI [16]: > 100 µM
- TGI [17]: > 100 µM
- TGI [18]: 76.8 µM
- TGI [19]: > 100 µM
- TGI [20]: > 100 µM
- TGI [21]: > 100 µM
- TGI [23]: > 100 µM
- TGI [24]: > 100 µM
- TGI [25]: > 100 µM
- TGI [26]: > 100 µM
- TGI [56]: 72.3 µM
- TGI [27]: > 100 µM
- TGI [28]: > 100 µM
- TGI [29]: > 100 µM
- TGI [30]: > 100 µM
- TGI [31]: > 100 µM
- TGI [32]: > 100 µM
- TGI [34]: > 100 µM
- TGI [57]: > 100 µM
- TGI [36]: > 100 µM
- TGI [58]: > 100 µM
- TGI [37]: > 100 µM
- TGI [38]: > 100 µM
- TGI [40]: > 100 µM
- TGI [41]: 41.3 µM
- TGI [44]: > 100 µM
- TGI [45]: > 100 µM
- TGI [46]: > 100 µM
- TGI [47]: > 100 µM
- TGI [48]: > 100 µM
- TGI [50]: > 100 µM
- TGI [51]: 83.4 µM
- TGI [52]: > 100 µM
- TGI [53]: > 100 µM
- TGI [54]: > 100 µM

Compound: NC(C/C=C/P(=O)(O)O)C(=O)O (stereo unspecified)
- TGI [1]: 32.8 µM
- TGI [2]: > 100 µM
- TGI [3]: > 100 µM
- TGI [4]: > 100 µM
- TGI [5]: > 100 µM
- TGI [6]: > 100 µM
- TGI [7]: > 100 µM
- TGI [8]: > 100 µM
- TGI [9]: > 100 µM
- TGI [55]: > 100 µM
- TGI [10]: > 100 µM
- TGI [11]: > 100 µM
- TGI [12]: > 100 µM
- TGI [13]: > 100 µM
- TGI [14]: > 100 µM
- TGI [15]: > 100 µM
- TGI [16]: > 100 µM
- TGI [17]: > 100 µM
- TGI [18]: > 100 µM
- TGI [59]: > 100 µM
- TGI [19]: > 100 µM
- TGI [20]: > 100 µM
- TGI [22]: > 100 µM
- TGI [24]: > 100 µM
- TGI [25]: > 100 µM
- TGI [26]: > 100 µM
- TGI [27]: > 100 µM
- TGI [28]: > 100 µM
- TGI [29]: > 100 µM
- TGI [30]: > 100 µM
- TGI [31]: > 100 µM
- TGI [32]: > 100 µM
- TGI [33]: > 100 µM
- TGI [34]: > 100 µM
- TGI [35]: > 100 µM
- TGI [36]: > 100 µM
- TGI [58]: > 100 µM
- TGI [37]: > 100 µM
- TGI [38]: > 100 µM
- TGI [39]: > 100 µM
- TGI [40]: > 100 µM
- TGI [42]: > 100 µM
- TGI [44]: > 100 µM
- TGI [45]: > 100 µM
- TGI [46]: > 100 µM
- TGI [47]: > 100 µM
- TGI [48]: > 100 µM
- TGI [49]: > 100 µM
- TGI [50]: > 100 µM
- TGI [51]: > 100 µM
- TGI [52]: > 100 µM
- TGI [54]: > 100 µM
